Assay results as given in patent publication US7713952B2, “2-methylene-19,26,27-trinor-(20S)-1α-hydroxyvitamin D3 and its uses” (Wisconsin Alumni Research Foundation, priority 2004, dated 2010).

Legend:
[1] = target: T1, full-length recombinant rat vitamin D receptor (Rattus norvegicus, UniProt P13053); test: Vitamin D receptor competitive binding with [3H]-1,25(OH)2D3; conditions: full-length recombinant rat VDR; FIG. 1; read-out: Ki, competition with [3H]-1,25(OH)2D3 for binding to vitamin D receptor
T1 construct: Full-length recombinant rat receptor was expressed in E. coli; histidine tag (C); made in house; host or cells: E. coli BL21 (DE3) Codon Plus RIL
T1 sequence (P13053 1-423): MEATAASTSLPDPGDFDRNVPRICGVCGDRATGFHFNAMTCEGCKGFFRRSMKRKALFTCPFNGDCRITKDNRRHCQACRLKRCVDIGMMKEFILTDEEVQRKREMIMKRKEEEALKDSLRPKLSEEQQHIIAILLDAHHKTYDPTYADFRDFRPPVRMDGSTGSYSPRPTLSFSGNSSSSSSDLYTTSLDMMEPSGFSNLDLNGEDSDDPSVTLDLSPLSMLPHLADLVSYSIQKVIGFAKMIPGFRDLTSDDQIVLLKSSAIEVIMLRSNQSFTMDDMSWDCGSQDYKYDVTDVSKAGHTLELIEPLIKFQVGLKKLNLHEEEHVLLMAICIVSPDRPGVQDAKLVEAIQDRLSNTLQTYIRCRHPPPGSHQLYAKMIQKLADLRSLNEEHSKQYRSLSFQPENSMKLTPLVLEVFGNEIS
Method: Full-length recombinant rat receptor was expressed in E. coli BL21 (DE3) Codon Plus RIL cells and purified to homogeneity using two different column chromatography systems. The first system was a nickel affinity resin that utilizes the C-terminal histidine tag on this protein. The protein that was eluted from this resin was further purified using ion exchange chromatography (S-Sepharose Fast Flow). Aliquots of the purified protein were quick frozen in liquid nitrogen and stored at −80° C. until use. For use in binding assays, the protein was diluted in TEDK50 (50 mM Tris, 1.5 mM EDTA, pH7.4, 5 mM DTT, 150 mM KCl) with 0.1% Chaps detergent. The receptor protein and ligand concentration were optimized such that no more than 20% of the added radiolabeled ligand was bound to the receptor.
Radiolabeled and unlabeled ligands were added to 100 mcl of the diluted protein at a final ethanol concentration of ≦10%, mixed and incubated overnight on ice to reach binding equilibrium. The following day, 100 mcl of hydroxylapatite slurry (50%) was added to each tube and mixed at 10-minute intervals for 30 minutes. The hydroxylapaptite was collected by centrifugation and then washed three times with Tris-EDTA buffer (50 mM Tris, 1.5 mM EDTA, pH 7.4) containing 0.5% Titron X-100. […]

[2] = system: Human promyelocytic leukemia (HL60) cells; test: HL-60 cell differentiation (nitro blue tetrazolium reduction); type: cell-based; conditions: 4 days, FIG. 2
Method: Radiolabeled and unlabeled ligands were added to 100 mcl of the diluted protein at a final ethanol concentration of ≦10%, mixed and incubated overnight on ice to reach binding equilibrium. The following day, 100 mcl of hydroxylapatite slurry (50%) was added to each tube and mixed at 10-minute intervals for 30 minutes. The hydroxylapaptite was collected by centrifugation and then washed three times with Tris-EDTA buffer (50 mM Tris, 1.5 mM EDTA, pH 7.4) containing 0.5% Titron X-100. After the final wash, the pellets were transferred to scintillation vials containing 4 ml of Biosafe II scintillation cocktail, mixed and placed in a scintillation counter. Total binding was determined from the tubes containing only radiolabeled ligand. • HL-60 Differentiation • Test Material Study Drugs
The study drugs were dissolved in ethanol and the concentrations determined using UV spectrophotometry. Serial dilutions were prepared so that a range of drug concentrations could be tested without changing the final concentration of ethanol (≦0.2%) present in the cell cultures. […]
HL60 cells were plated at 1.2×10^5 cells/ml. […] The percentage of differentiated cells was determined by counting a total of 200 cells and recording the number that contained intracellular black-blue formazan deposits. Verification of differentiation to monocytic cells was determined by measuring phagocytic activity (data not shown).

[3] = system: 24-hydroxylase (24Ohase) gene promoter in ROS 17/2.8 (bone) cells; test: In vitro transcription assay (24-hydroxylase promoter luciferase reporter); type: cell-based; conditions: ROS 17/2.8 cells, 24OHase-luciferase, 16 h; FIG. 3; read-out: EC50, transcriptional activity in bone cells
Method: In Vitro Transcription Assay
Transcription activity was measured in ROS 17/2.8 (bone) cells that were stably transfected with a 24-hydroxylase (24Ohase) gene promoter upstream of a luciferase reporter gene (Arbour et al., 1998). Cells were given a range of doses. Sixteen hours after dosing the cells were harvested and luciferase activities were measured using a luminometer.
RLU=relative luciferase units.

vitamin D-deficient rats [4] = test: Bone calcium mobilization (serum calcium); type: in vivo, rat; conditions: rats on 0.02% Ca diet
Method: (§1) Intestinal Calcium Transport and Bone Calcium Mobilization
(§2) Male, weanling Sprague-Dawley rats were placed on Diet 11 (0.47% Ca) diet +AEK for one week followed by Diet 11 (0.02% Ca) +AEK for 3 weeks. The rats were then switched to a diet containing 0.47% Ca for one week followed by two weeks on a diet containing 0.02% Ca. Dose administration began during the last week on 0.02% calcium diet. Four consecutive ip doses were given approximately 24 hours apart. Twenty-four hours after the last dose, blood was collected from the severed neck and the concentration of serum calcium determined as a measure of bone calcium mobilization. The first 10 cm of the intestine was also collected for intestinal calcium transport analysis using the everted gut sac method.

vitamin D-deficient rats [5] = test: Intestinal calcium transport (everted gut sac method); type: in vivo, rat; conditions: FIG. 6
Method: as §1, §2

[6] = 87 or 780 pmol/day ip for 4 days

Ki [1]	EC50 ([2]; Homo sapiens, HL-60, 96 h)	EC50 [3]	Compound	mobilization of bone calcium (serum calcium) (vitamin D-deficient rats [4]; 87 pmol/day ip for 4 consecutive days)	mobilization of bone calcium (serum calcium) (vitamin D-deficient rats [4]; 780 pmol/day and 7020 pmol/day ip for 4 days)	intestinal calcium transport (vitamin D-deficient rats [5]; 7020 pmol/day ip for 4 days)	intestinal calcium transport (vitamin D-deficient rats [5]; [6])	EC50 [2]	serum calcium levels (bone calcium mobilization) (vitamin D-deficient rats [4]; all dosages, FIG. 4)
0.077 nM	4.7 nM	3.2 nM	C=C1[C@H](O)CC(=C/C=C2\CCC[C@@]3(C)C2CCC3[C@@H](C)CCCC)C[C@H]1O (stereo partly drawn) [OM, 2-methylene-19,26,27-trinor-(20S)-1α-hydroxyvitamin D3]	did not result in mobilization of bone calcium	without any substantial effect	significant intestinal calcium transport activity was recorded	does not promote intestinal calcium transport		
			C=C1/C(=C\C=C2/CCC[C@]3(C)[C@@H]([C@H](C)CCCC(C)(C)O)CC[C@@H]23)C[C@@H](O)C[C@@H]1O [1,25(OH)2D3, 1α,25-dihydroxyvitamin D3, reference compound]				promotes a significant increase	2.9 nM	increased serum calcium levels at all dosages
